Experiment: Particle size distribution of micronised BDP by laser diffraction (Malvern)
Assay type: physicochemical
Details: micronised beclometasone dipropionate; volume diameter of 10% of particles
Procedure: The size of the particles of the active is determined by measuring the characteristic equivalent sphere diameter, known as volume diameter, by laser diffraction. In the reported examples, the volume diameter has been determined using a Malvern apparatus. However, other equivalent apparatus may be used by the skilled person in the art.
The particle size was determined by laser diffraction using a Malvern apparatus. The parameter taken into consideration was the VD in microns of 10%, 50% and 90% of the particles expressed as d(v,0.1), d(v, 0.5) and d(v, 0.9), respectively, which correspond to the mass diameter assuming a size independent density for the particles. The span [d(v,0.9)−d(v,0.1)]/d(v,0.5) is also reported. The Specific Surface Area (SSA) was determined by BET nitrogen adsorption using a Coulter SA3100 apparatus as a mean of three determinations.

Row | SMILES | d (v, 0.1)
1 | CCC(=O)OCC(=O)[C@@]1(OC(=O)CC)[C@@H](C)C[C@H]2[C@@H]3CCC4=CC(=O)C=C[C@]4(C)[C@@]3(Cl)[C@@H](O)C[C@@]21C [Batch 2, beclometasone dipropionate] | 0.96 μm
2 | CCC(=O)OCC(=O)[C@@]1(OC(=O)CC)[C@@H](C)C[C@H]2[C@@H]3CCC4=CC(=O)C=C[C@]4(C)[C@@]3(Cl)[C@@H](O)C[C@@]21C [Batch 3, beclometasone dipropionate] | 0.95 μm
3 | CCC(=O)OCC(=O)[C@@]1(OC(=O)CC)[C@@H](C)C[C@H]2[C@@H]3CCC4=CC(=O)C=C[C@]4(C)[C@@]3(Cl)[C@@H](O)C[C@@]21C [Batch 1, beclometasone dipropionate] | 0.86 μm
4 | CCC(=O)OCC(=O)[C@@]1(OC(=O)CC)[C@@H](C)C[C@H]2[C@@H]3CCC4=CC(=O)C=C[C@]4(C)[C@@]3(Cl)[C@@H](O)C[C@@]21C [Batch 4, beclometasone dipropionate] | 0.91 μm

— patent US8778402B2, “Dry powder formulation comprising a corticosteroid and a beta-adrenergic for administration by inhalation” (Chiesi Farmaceutici S.p.A., priority 2012, dated 2014)
